# Laboratory results as given in paper PMC2009384, “The carcinogenicity of polycyclic hydrocarbon epoxides in newborn mice” (British Journal of Cancer, 1975).
# Tested on: newborn Swiss mice
# Assay: Experiment II: carcinogenicity in newborn mice, chrysene, 7-methylbenz(a)anthracene and K region epoxides (s.c. injection, tumour incidence to 70-75 weeks)
# Details: for incidence of lung tumours / liver tumour incidence: 3 x 100 µg s.c., newborn; for incidence of lung tumours: 7-methylbenz(a)anthracene pair
# Text: Br. J. Cancer (1975) 31, 182 THE CARCINOGENICITY OF POLYCYCLIC HYDROCARBON EPOXIDES IN NEWBORN MICE P. L. GROVER, P. SIMS, B. C. V. MITCHLEY AND F. J. C. ROE From the Chester Beatty Research Institute, Institute of Cancer Research, Royal Cancer Hospital, Fulham Road, London, SW3 6JB Received 9 August 1974. […] THE HYPOTHESIS that the carcino- genicity of polycyclic hydrocarbons is associated with the formation of epoxide metabolites (Grover, Hewer and Sims, 1971, 1972; Keysell et al., 1973) is sup- ported by some experimental evidence but remains unproven. […] The epoxides can also act as alkylating agents (Grover and Sims, 1970) and as mutagens (Ames, Sims and Grover, 1972; Huberman et al., 1971; Cookson, Sims and Grover, 1971; Fahmy and Fahmy, 1973). […] The newborn mouse, which is susceptible to carcinogenic polycyclic hydrocarbons (Roe, Rowson and Salaman, 1961; Roe, Mitchley and Walters, 1963; Walters and Roe, 1964, 1966) can be considered as a convenient source of several types of rapidly dividing cells. Consequently we have tested the K region epoxides derived from phenanthrene, benz(a)anthracene, 7-methylbenz(a)anthracene, dibenz(a,h)- anthracene, chrysene and 3-methylchol- anthrene, together with some of the CARCINOGENICITY OF POLYCYCLIC HYDROCARBON EPOXIDES IN MICE 183 parent hydrocarbons, for carcinogenicity using newborn mice. This paper presents the results that were obtained in these experiments. MATERIALS AND METHODS The polycyclic hydrocarbon epoxides, phenanthrene 9,10-oxide, benz(a)anthracene 5,6-oxide, 7-methylbenz(a)anthracene 5,6- oxide, dibenz(a,h)anthracene 5,6-oxide, chry- sene 5,6-oxide and 3-methylcholanthrene 11,12-oxide were prepared from the parent hydrocarbons (Newman and Blum, 1964; Boyland and Sims, 1965; Sims 1966). Two experiments were undertaken fol- lowing similar protocols. For each experi- ment Swiss mice from a specific pathogen- free colony were time mated so as to produce a large number of litters over the course of 2 or 3 days. […] Test compounds were suspended in poly- ethylene glycol (PEG) 400 and injections of 0-02 ml of the suspension were given by introducing a 25 gauge hypodermic needle through the skin near the root of the tail and threading it subcutaneously to deliver the injected material in the interscapular region. Injections were given to every mouse on the first day or first 3 days of life. The details of treatments and numbers of mice of each sex in each group are shown in Table I (Experiment I) and Table II (Ex- periment II). Surviving mice were weaned when they w ere 21 days old. Thereafter, males and females w ere separated and housed 6 per cage in metal boxes. A mixture of sawdust and wood shavings was used as bedding. The mice were fed on a standard cubed diet (Formulation 86 from C. Holdman and Sons (Plow co Feeds), Byers Lane, South Godstone, Surrey) and water was given ad libitum. Mice were inspected daily, and at weekly intervals they were weighed and palpated for tumours and other lesions. […] The experiment was terminated when surviving mice were between 70 and 75 weeks old. A full routine post- mortem examination, which included disten- sion of the urinary bladder with fixative, was carried out. The number of lesions thought to be neoplasms and the size of the largest such lesion in each organ affected were recorded. All tissues with suspected neoplasms were fixed in Bouin's solution. Haematoxylin and eosin stained 5 µm paraffin wax sections were prepared and examined microscopically. RESULTS The results of the two experiments in terms of tumour incidence are sum- marized in […].
# [1] = females, 60 µg, 1 treatment (Day 0 only) s.c. in PEG 400
# [2] = males, 60 µg, 1 treatment (Day 0 only) s.c. in PEG 400
# [3] = females, 100 µg per treatment, 3 treatments
# [4] = females, 100 µg per treatment, 3 treatments (Days 0, 1 and 2) s.c. in PEG 400
# [5] = males, 100 µg per treatment, 3 treatments
# [6] = males, 100 µg per treatment, 3 treatments (Days 0, 1 and 2) s.c. in PEG 400
compound,measurement,setting,value
"Cc1ccc2cc3c(c4c2c1CC4)C1OC1c1ccccc1-3 (stereo not drawn) [3-Methylcholanthrene 11,12-oxide]",No. of mice examined at p.m. at termination of experiment (70-75th week) with liver tumours,"females, 60 µg, 1 treatment",0
same,No. of mice examined at p.m. at termination of experiment (70-75th week) with lung tumours,"females, 60 µg, 1 treatment",3
same,No. of mice examined at p.m. at termination of experiment (70-75th week) with multiple liver tumours,"females, 60 µg, 1 treatment",0
same,No. of mice examined at p.m. at termination of experiment (70-75th week) with multiple lung tumours,"females, 60 µg, 1 treatment",1
same,No. of mice examined at p.m. at termination of experiment (70-75th week) with other tumours,"females, 60 µg, 1 treatment",0
same,No. of mice examined at p.m. from 50-70th week with liver tumours,"females, 60 µg, 1 treatment",0
same,No. of mice examined at p.m. from 50-70th week with lung tumours,"females, 60 µg, 1 treatment",0
same,No. of mice examined at p.m. from 50-70th week with other tumours,"females, 60 µg, 1 treatment",0
same,No. of survivors at 50 weeks,[1],27
same,No. of survivors at 70 weeks,[1],25
same,"effect on the incidence of liver, lung or other tumours",in the doses tested (3 x 100 µg or 1 x 60 µg),without apparent effect
same,No. of mice examined at p.m. at termination of experiment (70-75th week) with liver tumours,"males, 60 µg, 1 treatment",6
same,No. of mice examined at p.m. at termination of experiment (70-75th week) with lung tumours,"males, 60 µg, 1 treatment",5
same,No. of mice examined at p.m. at termination of experiment (70-75th week) with multiple liver tumours,"males, 60 µg, 1 treatment",1
same,No. of mice examined at p.m. at termination of experiment (70-75th week) with multiple lung tumours,"males, 60 µg, 1 treatment",0
same,No. of mice examined at p.m. at termination of experiment (70-75th week) with other tumours,"males, 60 µg, 1 treatment",0
same,No. of mice examined at p.m. from 50-70th week with liver tumours,"males, 60 µg, 1 treatment",0
same,No. of mice examined at p.m. from 50-70th week with lung tumours,"males, 60 µg, 1 treatment",0
same,No. of mice examined at p.m. from 50-70th week with other tumours,"males, 60 µg, 1 treatment",0
same,No. of survivors at 50 weeks,[2],28
same,No. of survivors at 70 weeks,[2],26
"Cc1c2c(cc3ccccc13)-c1ccccc1C1OC21 (stereo not drawn) [7-Methylbenz(a)anthracene 5,6-oxide]",incidence of lung tumours,,slightly raised
same,No. of mice examined at p.m. at termination of experiment (70-75th week) with liver tumours,[3],0
same,No. of mice examined at p.m. at termination of experiment (70-75th week) with lung tumours,[3],6
same,No. of mice examined at p.m. at termination of experiment (70-75th week) with multiple liver tumours,[3],0
same,No. of mice examined at p.m. at termination of experiment (70-75th week) with multiple lung tumours,[3],3
same,No. of mice examined at p.m. at termination of experiment (70-75th week) with other tumours,[3],0
same,No. of mice examined at p.m. from 50-70th week with liver tumours,[3],0
same,No. of mice examined at p.m. from 50-70th week with lung tumours,[3],1
same,No. of mice examined at p.m. from 50-70th week with other tumours,[3],0
same,No. of survivors at 50 weeks,[4],25
same,No. of survivors at 70 weeks,[4],22
same,No. of mice examined at p.m. at termination of experiment (70-75th week) with liver tumours,[5],4
same,No. of mice examined at p.m. at termination of experiment (70-75th week) with lung tumours,[5],2
same,No. of mice examined at p.m. at termination of experiment (70-75th week) with multiple liver tumours,[5],2
same,No. of mice examined at p.m. at termination of experiment (70-75th week) with multiple lung tumours,[5],2
same,No. of mice examined at p.m. at termination of experiment (70-75th week) with other tumours,[5],0
same,No. of mice examined at p.m. from 50-70th week with liver tumours,[5],0
same,No. of mice examined at p.m. from 50-70th week with lung tumours,[5],0
same,No. of mice examined at p.m. from 50-70th week with other tumours,[5],0
same,No. of survivors at 50 weeks,[6],20
same,No. of survivors at 70 weeks,[6],20
"Cc1c2ccccc2cc2c1ccc1ccccc12 [7-Methylbenz(a)anthracene, reference compound]",incidence of lung tumours,,slightly raised
same,No. of mice examined at p.m. at termination of experiment (70-75th week) with liver tumours,[3],0
same,No. of mice examined at p.m. at termination of experiment (70-75th week) with lung tumours,[3],1
same,No. of mice examined at p.m. at termination of experiment (70-75th week) with multiple liver tumours,[3],0
same,No. of mice examined at p.m. at termination of experiment (70-75th week) with multiple lung tumours,[3],1
same,No. of mice examined at p.m. at termination of experiment (70-75th week) with other tumours,[3],1
same,No. of mice examined at p.m. from 50-70th week with liver tumours,[3],0
same,No. of mice examined at p.m. from 50-70th week with lung tumours,[3],7
same,No. of mice examined at p.m. from 50-70th week with other tumours,[3],1
same,No. of survivors at 50 weeks,[4],21
same,No. of survivors at 70 weeks,[4],10
same,No. of mice examined at p.m. at termination of experiment (70-75th week) with liver tumours,[5],1
same,No. of mice examined at p.m. at termination of experiment (70-75th week) with lung tumours,[5],3
same,No. of mice examined at p.m. at termination of experiment (70-75th week) with multiple liver tumours,[5],1
same,No. of mice examined at p.m. at termination of experiment (70-75th week) with multiple lung tumours,[5],3
same,No. of mice examined at p.m. at termination of experiment (70-75th week) with other tumours,[5],1
same,No. of mice examined at p.m. from 50-70th week with liver tumours,[5],11
same,No. of mice examined at p.m. from 50-70th week with lung tumours,[5],10
same,No. of mice examined at p.m. from 50-70th week with other tumours,[5],0
same,No. of survivors at 50 weeks,[6],23
same,No. of survivors at 70 weeks,[6],4
same,activity in increasing the incidence of liver tumours in males compared with K region epoxide,"neonatally injected, 3 x 100 µg",more active than its K region epoxide
"c1ccc2c(c1)-c1ccc3ccccc3c1C1OC21 (stereo not drawn) [Chrysene 5,6-oxide]",liver tumour incidence,,increased
same,No. of mice examined at p.m. at termination of experiment (70-75th week) with liver tumours,[3],1
same,No. of mice examined at p.m. at termination of experiment (70-75th week) with multiple liver tumours,[3],0
same,No. of mice examined at p.m. at termination of experiment (70-75th week) with multiple lung tumours,[3],0
same,No. of mice examined at p.m. at termination of experiment (70-75th week) with other tumours,[3],0
same,No. of mice examined at p.m. from 50-70th week with liver tumours,[3],0
same,No. of mice examined at p.m. from 50-70th week with lung tumours,[3],0
same,No. of mice examined at p.m. from 50-70th week with other tumours,[3],0
same,No. of survivors at 50 weeks,[4],22
same,No. of survivors at 70 weeks,[4],20
same,No. of mice examined at p.m. at termination of experiment (70-75th week) with liver tumours,[5],8
same,No. of mice examined at p.m. at termination of experiment (70-75th week) with lung tumours,[5],0
same,No. of mice examined at p.m. at termination of experiment (70-75th week) with multiple liver tumours,[5],3
same,No. of mice examined at p.m. at termination of experiment (70-75th week) with multiple lung tumours,[5],0
same,No. of mice examined at p.m. at termination of experiment (70-75th week) with other tumours,[5],0
same,No. of mice examined at p.m. from 50-70th week with liver tumours,[5],0
same,No. of mice examined at p.m. from 50-70th week with lung tumours,[5],0
same,No. of mice examined at p.m. from 50-70th week with other tumours,[5],0
same,No. of survivors at 50 weeks,[6],23
same,No. of survivors at 70 weeks,[6],21
"c1ccc2c(c1)ccc1c3ccccc3ccc21 [Chrysene, reference compound]",liver tumour incidence,,increased
same,No. of mice examined at p.m. at termination of experiment (70-75th week) with liver tumours,[3],0
same,No. of mice examined at p.m. at termination of experiment (70-75th week) with lung tumours,[3],0
same,No. of mice examined at p.m. at termination of experiment (70-75th week) with multiple liver tumours,[3],0
same,No. of mice examined at p.m. at termination of experiment (70-75th week) with multiple lung tumours,[3],0
same,No. of mice examined at p.m. at termination of experiment (70-75th week) with other tumours,[3],0
same,No. of mice examined at p.m. from 50-70th week with liver tumours,[3],0
same,No. of mice examined at p.m. from 50-70th week with lung tumours,[3],0
same,No. of mice examined at p.m. from 50-70th week with other tumours,[3],0
same,No. of survivors at 50 weeks,[4],22
same,No. of survivors at 70 weeks,[4],21
same,No. of mice examined at p.m. at termination of experiment (70-75th week) with liver tumours,[5],13
same,No. of mice examined at p.m. at termination of experiment (70-75th week) with lung tumours,[5],1
same,No. of mice examined at p.m. at termination of experiment (70-75th week) with multiple liver tumours,[5],6
same,No. of mice examined at p.m. at termination of experiment (70-75th week) with multiple lung tumours,[5],1
same,No. of mice examined at p.m. at termination of experiment (70-75th week) with other tumours,[5],0
same,No. of mice examined at p.m. from 50-70th week with liver tumours,[5],0
same,No. of mice examined at p.m. from 50-70th week with lung tumours,[5],0
same,No. of mice examined at p.m. from 50-70th week with other tumours,[5],0
same,No. of survivors at 50 weeks,[6],28
same,No. of survivors at 70 weeks,[6],27
